The values that follow come from patent US20100286145A1, “ISOPHTHALAMIDE DERIVATIVES INHIBITING BETA-SECRETASE ACTIVITY” (CoMentis, Inc., priority 2007, published 2010).

One assay concerns the target memapsin 2 (Homo sapiens, UniProt P56817). In words: Inhibition of memapsin 2 beta-secretase activity (fluorogenic substrate FS-2). The settings on record: memapsin 2, pH 4, 37° C., fluorogenic substrate FS-2; read-out: M2Ki. Format: biochemical. In outline: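 Kinetic fluorogenic assay: hydrolysis of the MCA/DNP-labelled APP Swedish-variant peptide FS-2 monitored as fluorescence rise at 37° C, pH 4, after 20 min enzyme–compound preincubation. Relative rates fitted with a tight-binding inhibitor model.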

Assay [1] relates to Aβ production in Chinese hamster ovary cells that over-express human APP695 with the London and Swedish mutations. In words: Cellular Aβ IC50 determination (Aβ40 sandwich ELISA). It counts as cell-based. The settings on record: Cricetulus griseus. In outline: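 Aβ40 in media quantified by sandwich ELISA, normalized to control incubations and fitted with a 4-parameter IC50 model. Compounds dosed to a final concentration near 4 μM (0.4% DMSO) on CHO cells expressing human APP695 (London and Swedish mutants) seeded at 10% confluency.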

Setting [2] is: cellular Aβ production, read-out: IC50.

Read-outs that look alike come from different tables or passages of the source.

Chain of memapsin 2 (P56817 46-501): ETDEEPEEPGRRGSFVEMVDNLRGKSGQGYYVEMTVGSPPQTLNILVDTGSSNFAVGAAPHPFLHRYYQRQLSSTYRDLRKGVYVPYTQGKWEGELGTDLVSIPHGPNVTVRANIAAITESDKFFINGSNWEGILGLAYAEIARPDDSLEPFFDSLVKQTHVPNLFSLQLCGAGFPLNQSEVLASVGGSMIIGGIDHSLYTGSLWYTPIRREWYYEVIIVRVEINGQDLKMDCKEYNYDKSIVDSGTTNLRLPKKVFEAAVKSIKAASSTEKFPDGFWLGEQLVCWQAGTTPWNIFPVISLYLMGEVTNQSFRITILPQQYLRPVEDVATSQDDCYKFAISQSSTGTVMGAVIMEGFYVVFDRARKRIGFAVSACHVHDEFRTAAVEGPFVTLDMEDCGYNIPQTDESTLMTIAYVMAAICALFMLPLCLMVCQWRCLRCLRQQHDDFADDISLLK

What is called IC50 is the concentration that gives 50% inhibition. As to `Cc1csc(CN(C)C(=O)c2cc(C(=O)N[C@@H](Cc3ccccc3)[C@H](O)CNCc3cncc(C(C)C)c3)cc(-c3ccco3)c2)n1` [Compound 252, 5-(furan-2-yl)-N1-((2S,3R)-3-hydroxy-4-((5-isopropylpyridin-3-yl)methylamino)-1-phenylbutan-2-yl)-N3-methyl-N3-((4-methylthiazol-2-yl)methyl)isophthalamide], the Ki on memapsin 2 was under 300 nM. The IC50 in assay [1] (setting [2]) was under 1000 nM.

Consider `Cc1csc(CN(C)C(=O)c2cc(C(=O)N[C@@H](Cc3ccccc3)[C@H](O)CNCc3cncc(C(C)(F)F)c3)cc(N(C)C)c2)n1` [Compound 253, N1-((2S,3R)-4-((5-(1,1-difluoroethyl)pyridin-3-yl)methylamino)-3-hydroxy-1-phenylbutan-2-yl)-5-(dimethylamino)-N3-methyl-N3-((4-methylthiazol-2-yl)methyl)isophthalamide], for which, at memapsin 2, the Ki was under 300 nM. For the same compound, the IC50 in assay [1] (setting [2]) is under 1000 nM.

Take `Cc1csc(CN(C)C(=O)c2cc(C(=O)N[C@@H](Cc3ccccc3)[C@H](O)CNCc3cccc(C(F)(F)F)c3)cc(N(C)C)c2)n1` [Compound 254, 5-(dimethylamino)-N1-((2S,3R)-3-hydroxy-1-phenyl-4-(3-(trifluoromethyl)benzylamino)butan-2-yl)-N3-methyl-N3-((4-methylthiazol-2-yl)methyl)isophthalamide]: the Ki on memapsin 2 was under 300 nM. The IC50 in assay [1] (setting [2]) was under 1000 nM.

In the case of `COP(=O)(OC)Oc1cc(CNC[C@@H](O)[C@H](Cc2ccccc2)NC(=O)c2cccc(C(=O)N(C)Cc3nc(C)cs3)c2)cc(C(C)C)c1` [Compound 255, 3-(((2R,3S)-2-hydroxy-3-(3-(methyl((4-methylthiazol-2-yl)methyl)carbamoyl)benzamido)-4-phenylbutylamino)methyl)-5-isopropylphenyl dimethyl phosphate], the Ki on memapsin 2 was under 300 nM. In assay [1], this compound gave an IC50 of under 1000 nM.

`Cc1nnc(CN(C)C(=O)c2cccc(C(=O)N[C@@H](Cc3ccccc3)[C@H](O)CNCc3cncc(C(C)C)c3)c2)o1` [Compound 256, N1-((2S,3R)-3-hydroxy-4-((5-isopropylpyridin-3-yl)methylamino)-1-phenylbutan-2-yl)-N3-methyl-N3-((5-methyl-1,3,4-oxadiazol-2-yl)methyl)isophthalamide]: at memapsin 2, the Ki was over 501 nM. Besides, the IC50 in assay [1] (setting [2]) was in the range of 1000 to 5000 nM.

Consider `Cc1csc(CN(C)C(=O)c2cc(C(=O)N[C@@H](Cc3ccccc3)[C@H](O)CNCc3cncc(C(C)C)c3)cc(-c3cccn3C)c2)n1` [Compound 257, N1-((2S,3R)-3-hydroxy-4-((5-isopropylpyridin-3-yl)methylamino)-1-phenylbutan-2-yl)-N3-methyl-5-(1-methyl-1H-pyrrol-2-yl)-N3-((4-methylthiazol-2-yl)methyl)isophthalamide], for which, at memapsin 2, the Ki is under 300 nM. Also, the IC50 in assay [1] (setting [2]) is under 1000 nM.

With `Cc1csc(CN(C)C(=O)c2cc(C(=O)N[C@@H](Cc3ccccc3)[C@H](O)CNCc3cncc(C(C)C)c3)cc(-c3cnn(C)c3)c2)n1` [Compound 258, N1-((2S,3R)-3-hydroxy-4-((5-isopropylpyridin-3-yl)methylamino)-1-phenylbutan-2-yl)-N3-methyl-5-(1-methyl-1H-pyrazol-4-yl)-N3-((4-methylthiazol-2-yl)methyl)isophthalamide], at memapsin 2, the Ki was under 300 nM. In assay [1] (setting [2]), the IC50 is under 1000 nM.

As to `Cc1csc(CN(C)C(=O)c2cc(C(=O)N[C@@H](Cc3ccccc3)[C@H](O)CNCc3cncc(C(C)C)c3)cc(-c3ccc(F)nc3)c2)n1` [Compound 259, 5-(6-fluoropyridin-3-yl)-N1-((2S,3R)-3-hydroxy-4-((5-isopropylpyridin-3-yl)methylamino)-1-phenylbutan-2-yl)-N3-methyl-N3-((4-methylthiazol-2-yl)methyl)isophthalamide], the Ki at memapsin 2 is under 300 nM. For the same compound, the IC50 in assay [1] (setting [2]) is under 1000 nM.

On to `COc1cccc([C@H](C)NC[C@@H](O)[C@H](Cc2ccccc2)NC(=O)c2cc(C(=O)N(C)Cc3nc(C)cs3)cc(N(C)C)c2)c1` [Compound 260, 5-(dimethylamino)-N1-((2S,3R)-3-hydroxy-4-((S)-1-(3-methoxyphenyl)ethylamino)-1-phenylbutan-2-yl)-N3-methyl-N3-((4-methylthiazol-2-yl)methyl)isophthalamide], for which, on memapsin 2, the Ki is 301 to 500 nM. Besides, the IC50 in assay [1] (setting [2]) is under 1000 nM.

For the compound `Cc1csc(CN(C)C(=O)c2cccc(C(=O)N[C@@H](Cc3ccccc3)[C@H](O)CNCc3cc(Cl)ccc3F)c2)n1` [Compound 261, N1-((2S,3R)-4-(5-chloro-2-fluorobenzylamino)-3-hydroxy-1-phenylbutan-2-yl)-N3-methyl-N3-((4-methylthiazol-2-yl)methyl)isophthalamide], the Ki on memapsin 2 was under 300 nM. The IC50 in assay [1] (setting [2]) is under 1000 nM.

`COc1cccc(CNC[C@@H](O)[C@H](Cc2ccccc2)NC(=O)c2cc(C(=O)N(C)Cc3nc(C)cs3)cc(-n3ccnc3)c2)c1` [Compound 262, N1-((2S,3R)-3-hydroxy-4-(3-methoxybenzylamino)-1-phenylbutan-2-yl)-5-(1H-imidazol-1-yl)-N3-methyl-N3-((4-methylthiazol-2-yl)methyl)isophthalamide]: the Ki at memapsin 2 was under 300 nM. Further, the IC50 in assay [1] (setting [2]) is under 1000 nM.

For `Cc1csc(CN(C)C(=O)c2cc(C(=O)N[C@@H](Cc3ccccc3)[C@H](O)CNCc3cncc(C(C)C)c3)cc(-c3ncc[nH]3)c2)n1` [Compound 263, N1-((2S,3R)-3-hydroxy-4-((5-isopropylpyridin-3-yl)methylamino)-1-phenylbutan-2-yl)-5-(1H-imidazol-2-yl)-N3-methyl-N3-((4-methylthiazol-2-yl)methyl)isophthalamide], the Ki at memapsin 2 is under 300 nM. The IC50 in assay [1] (setting [2]) is under 1000 nM.

`CC(=O)c1cncc(CNC[C@@H](O)[C@H](Cc2ccccc2)NC(=O)c2cccc(C(=O)N(C)Cc3nc(C)cs3)c2)c1` [Compound 264, N1-((2S,3R)-4-((5-acetylpyridin-3-yl)methylamino)-3-hydroxy-1-phenylbutan-2-yl)-N3-methyl-N3-((4-methylthiazol-2-yl)methyl)isophthalamide]: the Ki on memapsin 2 was under 300 nM. Also, in assay [1] (setting [2]), the IC50 was under 1000 nM.

`Cc1csc(CN(C)C(=O)c2cccc(C(=O)N[C@@H](Cc3ccccc3)[C@H](O)CNCc3cc(Br)cc(C(F)(F)F)c3)c2)n1` [Compound 265, N1-((2S,3R)-4-(3-bromo-5-(trifluoromethyl)benzylamino)-3-hydroxy-1-phenylbutan-2-yl)-N3-methyl-N3-((4-methylthiazol-2-yl)methyl)isophthalamide]: the Ki at memapsin 2 was under 300 nM. Also, in assay [1] (setting [2]), the IC50 was under 1000 nM.

As to `Cc1csc(CN(C)C(=O)c2cccc(C(=O)N[C@@H](Cc3ccccc3)[C@H](O)CNCc3cc(C#N)cc(C(F)(F)F)c3)c2)n1` [Compound 266, N1-((2S,3R)-4-(3-cyano-5-(trifluoromethyl)benzylamino)-3-hydroxy-1-phenylbutan-2-yl)-N3-methyl-N3-((4-methylthiazol-2-yl)methyl)isophthalamide], the Ki on memapsin 2 is under 300 nM. Moreover, the IC50 in assay [1] (setting [2]) is under 1000 nM.

Turning to `Cc1csc(CN(C)C(=O)c2cccc(C(=O)N[C@@H](Cc3ccccc3)[C@H](O)CNCc3cccc(-c4ccccc4)c3)c2)n1` [Compound 267, N1-((2S,3R)-4-(biphenyl-3-ylmethylamino)-3-hydroxy-1-phenylbutan-2-yl)-N3-methyl-N3-((4-methylthiazol-2-yl)methyl)isophthalamide], the Ki at memapsin 2 is under 300 nM. Besides, in assay [1] (setting [2]), the IC50 is under 1000 nM.

On to `Cc1csc(CN(C)C(=O)c2cc(C(=O)N[C@@H](Cc3ccccc3)[C@H](O)CNCc3cccc(C(C)(C)C)c3)cc(N(C)C)c2)n1` [Compound 268, N1-((2S,3R)-4-(3-tert-butylbenzylamino)-3-hydroxy-1-phenylbutan-2-yl)-5-(dimethylamino)-N3-methyl-N3-((4-methylthiazol-2-yl)methyl)isophthalamide], for which the Ki on memapsin 2 was under 300 nM. For the same compound, the IC50 in assay [1] (setting [2]) is under 1000 nM.

For `C=C(C)c1cc(CNC[C@@H](O)[C@H](Cc2ccccc2)NC(=O)c2cccc(C(=O)N(C)Cc3nc(C)cs3)c2)c[n+]([O-])c1` [Compound 269, 3-(((2R,3S)-2-hydroxy-3-(3-(methyl((4-methylthiazol-2-yl)methyl)carbamoyl)benzamido)-4-phenylbutylamino)methyl)-5-(prop-1-en-2-yl)pyridine 1-oxide], the Ki at memapsin 2 is under 300 nM. In addition, the IC50 in assay [1] (setting [2]) was under 1000 nM.

Take `Cc1csc(CN(C)C(=O)c2cc(C(=O)N[C@@H](Cc3ccccc3)[C@H](O)CNCc3cncc(C(C)(C)F)c3)cc(-c3ccoc3)c2)n1` [Compound 270, N1-((2S,3R)-4-((5-(2-fluoropropan-2-yl)pyridin-3-yl)methylamino)-3-hydroxy-1-phenylbutan-2-yl)-5-(furan-3-yl)-N3-methyl-N3-((4-methylthiazol-2-yl)methyl)isophthalamide]: on memapsin 2, the Ki is under 300 nM. Moreover, in assay [1] (setting [2]), the IC50 is under 1000 nM.

Turning to `Cc1csc(CN(C)C(=O)c2cc(C(=O)N[C@@H](Cc3ccccc3)[C@H](O)CNCc3cncc(C(C)C)c3)cc(-c3nccn3C)c2)n1` [Compound 271, N1-((2S,3R)-3-hydroxy-4-((5-isopropylpyridin-3-yl)methylamino)-1-phenylbutan-2-yl)-N3-methyl-5-(1-methyl-1H-imidazol-2-yl)-N3-((4-methylthiazol-2-yl)methyl)isophthalamide], the Ki on memapsin 2 is under 300 nM. Also, in assay [1] (setting [2]), the IC50 is under 1000 nM.

Take `Cc1csc(CN(C)C(=O)c2cc(C(=O)N[C@@H](Cc3ccccc3)[C@H](O)CNCc3cncc(C(C)C)c3)cc(-c3cccc(Cl)c3)c2)n1` [Compound 272, 3′-chloro-N3-((2S,3R)-3-hydroxy-4-((5-isopropylpyridin-3-yl)methylamino)-1-phenylbutan-2-yl)-N5-methyl-N5-((4-methylthiazol-2-yl)methyl)biphenyl-3,5-dicarboxamide]: the Ki on memapsin 2 is under 300 nM. Further, the IC50 in assay [1] (setting [2]) was under 1000 nM.
